Usually IC50 stands for the midpoint of a concentration-inhibition curve.

One experiment addresses HDAC8 (Homo sapiens (Human), UniProt Q9BY41). Particulars: read-out: HDAC8 IC50.
The target in the next experiment is HDAC1 (Homo sapiens (Human), UniProt Q13547). Particulars: read-out: HDAC1 IC50.
HDAC1, sequence (Q13547 whole entry): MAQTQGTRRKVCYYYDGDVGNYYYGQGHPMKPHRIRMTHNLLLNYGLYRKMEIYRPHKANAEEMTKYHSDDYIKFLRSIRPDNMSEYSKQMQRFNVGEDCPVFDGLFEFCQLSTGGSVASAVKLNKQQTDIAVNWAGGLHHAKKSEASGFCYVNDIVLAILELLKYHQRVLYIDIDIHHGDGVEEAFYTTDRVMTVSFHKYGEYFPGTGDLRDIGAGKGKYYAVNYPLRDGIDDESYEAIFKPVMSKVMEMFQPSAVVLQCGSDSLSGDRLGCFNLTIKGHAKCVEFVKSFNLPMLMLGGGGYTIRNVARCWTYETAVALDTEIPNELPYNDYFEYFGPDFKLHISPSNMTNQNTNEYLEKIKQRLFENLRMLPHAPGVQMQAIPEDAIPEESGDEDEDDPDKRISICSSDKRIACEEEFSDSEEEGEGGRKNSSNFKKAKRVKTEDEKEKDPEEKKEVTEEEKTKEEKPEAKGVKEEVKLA

HDAC8, sequence (Q9BY41 whole entry): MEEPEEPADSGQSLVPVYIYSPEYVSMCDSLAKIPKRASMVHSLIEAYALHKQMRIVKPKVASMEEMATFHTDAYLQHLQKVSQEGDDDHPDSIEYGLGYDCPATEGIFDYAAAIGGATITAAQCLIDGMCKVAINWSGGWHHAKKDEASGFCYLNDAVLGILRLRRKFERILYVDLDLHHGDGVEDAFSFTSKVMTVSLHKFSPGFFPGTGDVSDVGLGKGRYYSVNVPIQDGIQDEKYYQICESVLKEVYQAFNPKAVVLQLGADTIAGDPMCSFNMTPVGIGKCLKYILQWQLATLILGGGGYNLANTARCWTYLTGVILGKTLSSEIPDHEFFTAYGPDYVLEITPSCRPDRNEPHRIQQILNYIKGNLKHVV
Procedure for HDAC1: Assay protocol: In brief, compounds were titrated in 100% DMSO via accoustic dispensing directly to the assay plate using the ECHO 550 [Labcyte]. HDAC enzymes at the concentrations indicated above were added in assay buffer to the assay plates containing the compounds using a Combi [Thermo Scientific]. The wells were mixed, and the plates were allowed to pre-incubate at ambient temperature for 3 h. After the 3 h, the appropriate substrate, at the concentrations indicated above, was added to the wells using a Combi. The wells were mixed, and the plates were allowed to incubate at ambient temperature for 1 h. After the 1 h, the appropriate Developer/stop solution was added to the wells using a Combi. The wells were mixed, and the plates were allowed to incubate at ambient temperature for 1 h. […] Data were analyzed using 4P curve fitting with Activity Base [IDBS] software.

On to `Cc1n[nH]c2c1CC(NCc1ccc(-c3noc(C(F)(F)F)n3)cn1)CC2` (racemic) [Example 372, 3-methyl-N-({5-[5-(trifluoromethyl)-1,2,4-oxadiazol-3-yl]pyridin-2-yl}methyl)-4,5,6,7-tetrahydro-1H-indazol-5-amine], for which the IC50 on HDAC8 was 2900 nM; on HDAC1, 400 nM.
As for `O=C1NCCc2ccccc2C1NCc1ccc(-c2noc(C(F)(F)F)n2)cn1` (racemic) [Example 373, 1-[({5-[5-(trifluoromethyl)-1,2,4-oxadiazol-3-yl]pyridin-2-yl}methyl)amino]-1,3,4,5-tetrahydro-2H-3-benzazepin-2-one], the IC50 on HDAC8 came to 2800 nM; on HDAC1 it was 1300 nM.
On the same counts, the results for `O=C1CCC(NCc2ccc(-c3noc(C(F)(F)F)n3)cn2)c2ccccc2N1` (racemic) [Example 374, 5-[({5-[5-(trifluoromethyl)-1,2,4-oxadiazol-3-yl]pyridin-2-yl}methyl)amino]-1,3,4,5-tetrahydro-2H-1-benzazepin-2-one] are 6900 nM and 3200 nM.
Take `O=C1Nc2ccccc2CC1NCc1ccc(-c2noc(C(F)(F)F)n2)cn1` (racemic) [Example 375, 3-[({5-[5-(trifluoromethyl)-1,2,4-oxadiazol-3-yl]pyridin-2-yl}methyl)amino]-3,4-dihydroquinolin-2(1H)-one]: the concentration for half-maximal inhibition (IC50) was determined as 2600 nM at HDAC8 and 1000 nM at HDAC1.
For `O=C1NCCCCC1NCc1ccc(-c2noc(C(F)(F)F)n2)cn1` (racemic) [Example 377, 3-[({5-[5-(trifluoromethyl)-1,2,4-oxadiazol-3-yl]pyridin-2-yl}methyl)amino]azepan-2-one] the same measures were 3300 nM and 7300 nM.
On the same counts, the results for `O=C1CCC(NCc2ccc(-c3noc(C(F)(F)F)n3)cn2)c2ccccc2N1` (racemic) [Example 381, 5-[({5-[5-(trifluoromethyl)-1,2,4-oxadiazol-3-yl]pyridin-2-yl}methyl)amino]-1,3,4,5-tetrahydro-2H-1-benzazepin-2-one] are 3900 nM and 520 nM.
As for `CC(C(=O)N(Cc1ccc(-c2noc(C(F)(F)F)n2)cn1)c1cccc(F)c1)n1cccn1` (racemic) [Example 389, N-(3-fluorophenyl)-2-(1H-pyrazol-1-yl)-N-({5-[5-(trifluoromethyl)-1,2,4-oxadiazol-3-yl]pyridin-2-yl}methyl)propanamide], the IC50 came out at 1600 nM at HDAC8 and 300 nM at HDAC1.
On the same counts, the results for `Cc1nccn1C(C)C(=O)N(Cc1ccc(-c2noc(C(F)(F)F)n2)cn1)c1cccc(F)c1` (racemic) [Example 390, N-(3-fluorophenyl)-2-(2-methyl-1H-imidazol-1-yl)-N-({5-[5-(trifluoromethyl)-1,2,4-oxadiazol-3-yl]pyridin-2-yl}methyl)propanamide] are 1700 nM and 430 nM.
For `O=C(CC1CCS(=O)(=O)C1)N(Cc1ccc(-c2noc(C(F)(F)F)n2)cn1)c1cccc(F)c1` (racemic) [Example 398, 2-(1,1-dioxidotetrahydrothiophen-3-yl)-N-(3-fluorophenyl)-N-({5-[5-(trifluoromethyl)-1,2,4-oxadiazol-3-yl]pyridin-2-yl}methyl)acetamide] the same measures were 2300 nM and 410 nM.
Take `CN1CC(C(=O)N(Cc2ccc(-c3noc(C(F)(F)F)n3)cn2)c2cccc(F)c2)CCC1=O` (racemic) [Example 402, N-(3-fluorophenyl)-1-methyl-6-oxo-N-({5-[5-(trifluoromethyl)-1,2,4-oxadiazol-3-yl]pyridin-2-yl}methyl)piperidine-3-carboxamide]: the values for the IC50 on HDAC8 and on HDAC1 were 2600 nM and 340 nM, respectively.
For `CN1CCC(C(=O)N(Cc2ccc(-c3noc(C(F)(F)F)n3)cn2)c2cccc(F)c2)C1` (racemic) [Example 403, N-(3-fluorophenyl)-1-methyl-N-({5-[5-(trifluoromethyl)-1,2,4-oxadiazol-3-yl]pyridin-2-yl}methyl)pyrrolidine-3-carboxamide] the same measures were 2000 nM and 250 nM.
On the same counts, the results for `O=C(C1CCCS(=O)(=O)C1)N(Cc1ccc(-c2noc(C(F)(F)F)n2)cn1)c1cccc(F)c1` (racemic) [Example 405, N-(3-fluorophenyl)-N-({5-[5-(trifluoromethyl)-1,2,4-oxadiazol-3-yl]pyridin-2-yl}methyl)tetrahydro-2H-thiopyran-3-carboxamide 1,1-dioxide] are 1600 nM and 220 nM.
On the same counts, the results for `O=C1N(CC2CCOCC2)CC(c2ccccc2)N1c1ccc(-c2noc(C(F)(F)F)n2)cc1` (racemic) [Example 422, 4-phenyl-1-(tetrahydro-2H-pyran-4-ylmethyl)-3-{4-[5-(trifluoromethyl)-1,2,4-oxadiazol-3-yl]phenyl}imidazolidin-2-one] are 4000 nM and 3400 nM.
Consider `FC(COc1cc(-c2noc(C(F)(F)F)n2)ccn1)CN1CCOCC1` (racemic) [Example 427, 4-[2-fluoro-3-({4-[5-(trifluoromethyl)-1,2,4-oxadiazol-3-yl]pyridin-2-yl}oxy)propyl]morpholine], for which the half-maximal inhibitory concentration (IC50) stood at 1000 nM on HDAC8 and 5100 nM at HDAC1.
On the same counts, the results for `CC(C)N1CCC(NCc2ccc(-c3noc(C(F)(F)F)n3)cn2)C1=O` (racemic) [Example 435, 1-(1-methylethyl)-3-[({5-[5-(trifluoromethyl)-1,2,4-oxadiazol-3-yl]pyridin-2-yl}methyl)amino]pyrrolidin-2-one] are 4600 nM and 4400 nM.
For `O=C1CC(NCc2ccc(-c3noc(C(F)(F)F)n3)cn2)CCN1` (racemic) [Example 437, 4-[({5-[5-(trifluoromethyl)-1,2,4-oxadiazol-3-yl]pyridin-2-yl}methyl)amino]piperidin-2-one] the same measures were 5100 nM and 5400 nM.
On the same counts, the results for `CN1CCOC(CNCc2ccc(-c3noc(C(F)(F)F)n3)cn2)C1` (racemic) [Example 452, 1-(4-methylmorpholin-2-yl)-N-({5-[5-(trifluoromethyl)-1,2,4-oxadiazol-3-yl]pyridin-2-yl}methyl)methanamine] are 2400 nM and 2800 nM.
Regarding `O=C1CCC(c2ccccc2)N1c1ncc(-c2noc(C(F)(F)F)n2)cc1F` (stereo not shown) [Example 5, 1-(3-Fluoro-5-(5-(trifluoromethyl)-1,2,4-oxadiazol-3-yl)pyridin-2-yl)-5-phenylpyrrolidin-2-one], the IC50 amounted to 13000 nM at HDAC8 and 2300 nM on HDAC1.
On the same counts, the results for `O=C1CC[C@@H](c2nc3ccccc3[nH]2)N1c1ccc(-c2noc(C(F)(F)F)n2)cc1` [Example 21, (S)-5-(1H-Benzo[d]imidazol-2-yl)-1-(4-(5-(trifluoromethyl)-1,2,4-oxadiazol-3-yl)phenyl)pyrrolidin-2-one] are 660 nM and 110 nM.
On the same counts, the results for `O=C1CC[C@@H](c2nc3ccccc3o2)N1c1ccc(-c2noc(C(F)(F)F)n2)cc1F` [Example 22, (S)-5-(Benzo[d]oxazol-2-yl)-1-(2-fluoro-4-(5-(trifluoromethyl)-1,2,4-oxadiazol-3-yl)phenyl)pyrrolidin-2-one] are 350 nM and 32 nM.
On the same counts, the results for `O=C1CCC[C@@H](c2nc3ccccc3s2)N1c1ccc(-c2noc(C(F)(F)F)n2)cc1` [Example 25, (S)-6-(Benzo[d]thiazol-2-yl)-1-(4-(5-(trifluoromethyl)-1,2,4-oxadiazol-3-1)phenyl)piperidin-2-one] are 740 nM and 220 nM.
As to `FC(F)(F)c1nc(-c2ccc(N[C@@H]3CCCC[C@H]3c3ccccc3)nc2)no1` [Example 26, N-((1R,2S)-2-Phenylcyclohexyl)-5-(5-(trifluoromethyl)-1,2,4-oxadiazol-3-yl)pyridin-2-amine], the concentration for half-maximal inhibition (IC50) amounted to 26000 nM at HDAC8 and 4600 nM on HDAC1.
On the same counts, the results for `FC(F)(F)c1nc(-c2ccc(CN(c3ccccn3)c3ccccn3)cc2)no1` [Example 27, N-(Pyridin-2-yl)-N-(4-(5-(trifluoromethyl)-1,2,4-oxadiazol-3-yl)benzyl)pyridin-2-amine] are 4800 nM and 3700 nM.
On the same counts, the results for `O=c1ccc2ccccc2n1Cc1ccc(-c2noc(C(F)(F)F)n2)cc1` [Example 28, 1-(4-(5-(Trifluoromethyl)-1,2,4-oxadiazol-3-yl)benzyl)quinolin-2(1H)-one] are 1600 nM and 760 nM.
For `Cc1nc2cc(F)ccc2n1Cc1ccc(-c2noc(C(F)(F)F)n2)cc1F` [Example 29, 3-(3-Fluoro-4-((5-fluoro-2-methyl-1H-benzo[d]imidazol-1-yl)methyl)phenyl)-5-(trifluoromethyl)-1,2,4-oxadiazole] the same measures were 8200 nM and 1600 nM.
As for `O=C(N1CCOCC1)N(Cc1ccc(-c2noc(C(F)(F)F)n2)cc1)c1cccc(C(F)(F)F)c1` [Example 32, N-(4-(5-(Trifluoromethyl)-1,2,4-oxadiazol-3-yl)benzyl)-N-(3-(trifluoromethyl)phenyl)morpholine-4-carboxamide], the IC50 on HDAC8 was found to be 2300 nM; on HDAC1, 440 nM.
For `CN1CCN(c2ccc(-c3noc(C(F)(F)F)n3)cc2)C(c2ccccc2)C1` (stereo not shown) [Example 33, 3-(4-(4-Methyl-2-phenylpiperazin-1-yl)phenyl)-5-(trifluoromethyl)-1,2,4-oxadiazole] the same measures were 3900 nM and 5300 nM.
On the same counts, the results for `O=C1COC[C@@H](c2nc(-c3ccccn3)no2)N1c1ccc(-c2noc(C(F)(F)F)n2)cc1` [Example 34, (S)-5-(3-(Pyridin-2-yl)-1,2,4-oxadiazol-5-yl)-4-(4-(5-(trifluoromethyl)-1,2,4-oxadiazol-3-yl)phenyl)morpholin-3-one] are 280 nM and 64 nM.
On the same counts, the results for `O=C1C(C2CCOCC2)NC[C@@H](c2cc(F)cc(F)c2)N1c1ccc(-c2noc(C(F)(F)F)n2)cn1` (stereo partly drawn) [Example 38, (6R)-6-(3,5-difluorophenyl)-3-(tetrahydro-2H-pyran-4-yl)-1-(5-(5-(trifluoromethyl)-1,2,4-oxadiazol-3-yl)pyridin-2-yl)piperazin-2-one] are 16000 nM and 4300 nM.

The record behind these values is patent publication US11066396B2 (priority 2016, dated 2021).
